In PubChem BioAssay (NCI):
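96-well plates; 48 h exposure; 5 concentrations. Endpoints by linear interpolation between flanking doses. Not reached: highest tested concentration assigned. TGI is the concentration that stops growth completely.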

Columns and labels:
Assay in all cases: NCI tumour cell line growth inhibition, 48 h
NCI-H23 lung = tested on: NCI-H23 lung
MDA-N = tested on: MDA-N
MDA-MB-231 breast = tested on: MDA-MB-231 breast
SF-268 CNS = tested on: SF-268 CNS
NCI-H522 lung = tested on: NCI-H522 lung
SR leukemia = tested on: SR leukemia
SW-620 colon = tested on: SW-620 colon
NCI/ADR-RES ovarian = tested on: NCI/ADR-RES ovarian
HCT-116 colon = tested on: HCT-116 colon
HOP-62 NSCLC = tested on: HOP-62 NSCLC
OVCAR-3 ovarian = tested on: OVCAR-3 ovarian
HL-60(TB) leukemia = tested on: HL-60(TB) leukemia

SMILES	TGI (NCI-H23 lung)	TGI (MDA-N)	TGI (MDA-MB-231 breast)	TGI (SF-268 CNS)	TGI (NCI-H522 lung)	TGI (SR leukemia)	TGI (SW-620 colon)	TGI (NCI/ADR-RES ovarian)	TGI (HCT-116 colon)	TGI (HOP-62 NSCLC)	TGI (OVCAR-3 ovarian)	TGI (HL-60(TB) leukemia)
CCOP(=O)(OCC)/C(C#N)=C/c1ccnc2ccccc12	59.7 µM	42.2 µM	58.2 µM	56.5 µM	57.8 µM	73.6 µM	> 100 µM	> 100 µM	> 100 µM	> 100 µM	70.6 µM	–
COc1ccc(CCNCCCC2c3ccccc3-c3ccccc32)cc1OC	28.9 µM	30.8 µM	–	30.3 µM	30.1 µM	24.2 µM	20.4 µM	33.2 µM	25.8 µM	30 µM	31.2 µM	47.7 µM
CCOC(=O)c1c(N2CCCC2)[nH]c(=O)c(C(c2cccs2)c2c(O)c(C(=O)OCC)c(N3CCCC3)[nH]c2=O)c1O	> 100 µM	> 100 µM	> 100 µM	> 100 µM	> 100 µM	> 100 µM	> 100 µM	> 100 µM	> 100 µM	> 100 µM	> 100 µM	–
COc1cc(C2C(Cl)C(=O)N2NC(=O)c2ccc(NC(C)=O)cc2OC)ccc1O (stereo not given)	39.8 µM	50.7 µM	–	61.5 µM	23 µM	> 100 µM	76.3 µM	> 100 µM	33.2 µM	–	53.5 µM	44.8 µM
CC1=NN=C(N)NC1=CC(Sc1ccc(Cl)cc1)c1c(O)ccc2ccccc12 (stereo not given)	51.6 µM	> 100 µM	56.5 µM	> 71.1 µM	41.8 µM	> 100 µM	> 100 µM	71.9 µM	> 63.2 µM	57.7 µM	–	–
CC(C)(C)S(=O)OC12CC3CC(CC(C3)C1)C2 (stereo not given)	> 100 µM	–	–	> 100 µM	> 100 µM	> 100 µM	> 100 µM	–	> 100 µM	> 100 µM	> 100 µM	–
CC(=O)C1=CCC2c3[nH]c4ccccc4c3CCN2C1 (stereo not given)	> 100 µM	–	–	> 100 µM	65.6 µM	> 100 µM	> 100 µM	–	> 100 µM	> 100 µM	> 100 µM	> 100 µM
COc1ccc2c(c1)CCC(OS(=O)(=O)CC13CCC(CC1=O)C3(C)C)C2=O (stereo not given)	36.1 µM	–	–	59.8 µM	53.7 µM	73.3 µM	69.7 µM	–	53.3 µM	70.8 µM	66.9 µM	47.5 µM
CCCC[C@H]1CCN2C[C@@H](O)[C@@H](O)[C@H]2[C@@H]1O	> 100 µM	> 100 µM	> 100 µM	> 100 µM	> 100 µM	–	> 100 µM	> 100 µM	> 100 µM	–	> 100 µM	> 100 µM
Cc1cc2c(cc1Cl)SC(NNc1ccc([N+](=O)[O-])cc1)=NS2(=O)=O	> 10 µM	> 10 µM	> 10 µM	> 10 µM	> 10 µM	–	> 10 µM	> 10 µM	> 10 µM	> 10 µM	> 10 µM	> 10 µM
c1ccc2cc3c(cc2c1)nc1ccccn13	> 100 µM	> 100 µM	–	> 100 µM	–	> 100 µM	> 100 µM	> 100 µM	> 100 µM	> 100 µM	> 100 µM	> 100 µM
C=CCN1CN(c2ccccc2)C2(CCN(CCCC3(c4ccc(F)cc4)OCCO3)CC2)C1=O	30 µM	–	33.7 µM	38.5 µM	36.7 µM	48.7 µM	36.9 µM	28.2 µM	28.4 µM	36 µM	27.7 µM	29 µM
O=C1NC2(CCN(CCCC3(c4ccc(F)cc4)OCCO3)CC2)Oc2ccccc21	> 100 µM	–	> 100 µM	> 100 µM	–	> 100 µM	> 100 µM	> 100 µM	> 100 µM	> 100 µM	–	> 100 µM
CCOC(OC1=C(C#N)CCCC1)C(C)[Se]c1ccccc1 (stereo not given)	39.4 µM	–	–	46.6 µM	30.8 µM	63.8 µM	–	–	> 100 µM	> 100 µM	> 100 µM	49.4 µM
CC(=O)ON(C(C)=O)c1ccc(-c2nc3ccccc3s2)cc1C	> 100 µM	> 100 µM	> 100 µM	> 100 µM	> 100 µM	> 100 µM	> 100 µM	> 100 µM	> 100 µM	> 100 µM	> 100 µM	–
O=C1c2ccccc2-c2c1c(-c1cccc(Br)c1)nc1ccc3ccccc3c21	> 100 µM	> 100 µM	> 100 µM	> 100 µM	–	–	> 100 µM	> 100 µM	> 100 µM	> 100 µM	> 100 µM	–
CCC(=O)C(C(C)/C=C/CCSc1ccccc1)C(O)CCCCCC(=O)OC (stereo not given)	> 100 µM	> 100 µM	> 100 µM	> 100 µM	> 100 µM	> 100 µM	> 100 µM	> 100 µM	> 100 µM	> 100 µM	> 100 µM	–
COc1ccc(CCNC(=O)[C@H]2CCCC[C@@H]2CCO)cc1OC	> 100 µM	–	> 100 µM	> 100 µM	> 100 µM	> 100 µM	> 100 µM	> 100 µM	> 100 µM	> 100 µM	> 100 µM	> 100 µM
N#Cc1sc2c(c1O)c(=O)n(-c1ccccc1)c(=S)n2-c1ccccc1	> 100 µM	> 100 µM	> 100 µM	> 100 µM	> 100 µM	> 100 µM	> 100 µM	–	–	–	> 100 µM	> 100 µM
C[N+](C)=c1nc(N2CCc3ccccc3C2)ss1	–	–	–	> 100 µM	> 100 µM	> 100 µM	> 100 µM	–	> 100 µM	> 100 µM	> 100 µM	> 100 µM
CCc1cc2c(oc3cc(C)ccc32)c(=O)n1C	> 10 µM	> 10 µM	> 10 µM	> 10 µM	> 10 µM	> 10 µM	> 10 µM	–	> 10 µM	–	> 10 µM	> 10 µM
NCc1cc(O)c(O)c(O)c1	–	–	–	> 100 µM	> 100 µM	> 100 µM	> 100 µM	–	> 100 µM	> 100 µM	> 100 µM	> 100 µM
